The structures appear in SMILES notation.

For this assay, the target named is recombinant IL4I1 (Homo sapiens (Human), UniProt Q96RQ9). The assay is described as follows: IL4I1 Enzymatic Assay (Amplex Red/HRP coupled fluorescence detection of H2O2). The assay is classed as biochemical. Particulars: 240 min; recombinant IL4I1, four-hour pre-incubation with compound. In short, it runs like this: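 Ten-point, 1:3 compound titrations were fitted by four-parameter sigmoidal regression to give EC50. Resorufin fluorescence (544/590 nm) from Amplex Red/HRP-coupled H2O2 detection was read 120 min after adding 1 mM each aromatic amino acid to 1 nM IL4I1, following a 4 h compound pre-incubation in pH 7.0 Hepes buffer.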
recombinant IL4I1, sequence (Q96RQ9 22-567): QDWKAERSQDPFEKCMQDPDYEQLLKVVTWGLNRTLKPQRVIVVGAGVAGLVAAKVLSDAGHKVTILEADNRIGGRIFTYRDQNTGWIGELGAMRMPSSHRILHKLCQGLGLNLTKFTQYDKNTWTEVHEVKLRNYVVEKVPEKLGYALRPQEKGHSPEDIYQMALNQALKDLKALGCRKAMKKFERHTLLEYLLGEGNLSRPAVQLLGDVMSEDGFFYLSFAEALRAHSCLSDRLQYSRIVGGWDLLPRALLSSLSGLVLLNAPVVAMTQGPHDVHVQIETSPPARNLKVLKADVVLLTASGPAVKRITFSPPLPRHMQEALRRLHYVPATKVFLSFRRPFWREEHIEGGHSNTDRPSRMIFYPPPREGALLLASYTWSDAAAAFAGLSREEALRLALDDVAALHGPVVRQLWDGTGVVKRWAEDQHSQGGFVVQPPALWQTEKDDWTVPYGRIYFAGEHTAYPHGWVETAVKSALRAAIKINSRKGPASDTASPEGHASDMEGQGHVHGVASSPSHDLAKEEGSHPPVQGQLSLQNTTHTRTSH
As to `CC1(N2CCN(CC34CC(c5ccccc5)(C3)C4(F)F)C(=O)C2=O)CCC1` [Example 190, 1-((2,2-difluoro-3-phenylbicyclo[1.1.1]pentan-1-yl)methyl)-4-(1-methylcyclobutyl)piperazine-2,3-dione], the EC50 was determined as 31 nM. In the case of `O=C1C(=O)N(C23CC(C2)C3)CCN1CC12CC(c3ccccc3)(C1)C2(F)F` [Example 191, 1-(bicyclo[1.1.1]pentan-1-yl)-4-((2,2-difluoro-3-phenylbicyclo[1.1.1]pentan-1-yl)methyl)piperazine-2,3-dione], the EC50 is 35 nM. Then `O=c1c(=O)n(C2CCC2)ccn1Cc1ccc(-c2c(F)cccc2F)nn1` [Example 192, 1-cyclobutyl-4-((6-(2,6-difluorophenyl)pyridazin-3-yl)methyl)-1,4-dihydropyrazine-2,3-dione], with 13 nM.

In the case of `O=c1c(=O)n(C23CC(C2)C3)ccn1Cc1ccc(-c2ccccc2F)nn1` [Example 193, 1-(bicyclo[1.1.1]pentan-1-yl)-4-((6-(2-fluorophenyl)pyridazin-3-yl)methyl)-1,4-dihydropyrazine-2,3-dione], the EC50 came out at 8 nM. Then `O=C1C(=O)N(C2(CF)CC2)CCN1Cc1nnc(-c2ccccc2F)s1` [Example 194, 1-(1-(fluoromethyl)cyclopropyl)-4-((5-(2-fluorophenyl)-1,3,4-thiadiazol-2-yl)methyl)piperazine-2,3-dione], with 41 nM; and `O=C1C(=O)N(C2(CF)CC2)CCN1Cc1ccc(-c2ccccc2F)nn1` [Example 195, 1-(1-(fluoromethyl)cyclopropyl)-4-((6-(2-fluorophenyl)pyridazin-3-yl)methyl)piperazine-2,3-dione], with 48 nM. With `O=C1C(=O)N(C2(CF)CC2)CCN1Cc1cc(-c2ccccc2)no1` [Example 196, 1-(1-(fluoromethyl)cyclopropyl)-4-((3-phenylisoxazol-5-yl)methyl)piperazine-2,3-dione], the EC50 was 11 nM. As to `CC1(n2ccn(Cc3ccc(-c4ccccc4F)nn3)c(=O)c2=O)CC1` [Example 197, 1-((6-(2-fluorophenyl)pyridazin-3-yl)methyl)-4-(1-methylcyclopropyl)-1,4-dihydropyrazine-2,3-dione], the EC50 was determined as 33 nM. Then `N#CC1(n2ccn(Cc3ccc(-c4ccccc4F)nn3)c(=O)c2=O)CC1` [Example 198, 1-(4-((6-(2-fluorophenyl)pyridazin-3-yl)methyl)-2,3-dioxo-3,4-dihydropyrazin-1(2H)-yl)cyclopropane-1-carbonitrile], with 76 nM; and `CC1(n2ccn(Cc3cc(-c4ccccn4)no3)c(=O)c2=O)CC1` [Example 199, 1-(1-methylcyclopropyl)-4-((3-(pyridin-2-yl)isoxazol-5-yl)methyl)-1,4-dihydropyrazine-2,3-dione], with 24 nM. Then `N#CC1(n2ccn(Cc3cc(-c4ccccn4)no3)c(=O)c2=O)CC1` [Example 200, 1-(2,3-dioxo-4-((3-(pyridin-2-yl)isoxazol-5-yl)methyl)-3,4-dihydropyrazin-1(2H)-yl)cyclopropane-1-carbonitrile], with 68 nM.

For `O=c1c(=O)n(C23CC(F)(C2)C3)ccn1Cc1ccc(-c2ccccc2F)nn1` [Example 201, 1-(3-fluorobicyclo[1.1.1]pentan-1-yl)-4-((6-(2-fluorophenyl)pyridazin-3-yl)methyl)-1,4-dihydropyrazine-2,3-dione], the EC50 came to 30 nM.

Take `CC1(n2ccn(Cc3ccc(-n4nccn4)cn3)c(=O)c2=O)CC1` [Example 202, 1-((5-(2H-1,2,3-triazol-2-yl)pyridin-2-yl)methyl)-4-(1-methylcyclopropyl)-1,4-dihydropyrazine-2,3-dione]: the EC50 is 44 nM. Regarding `O=c1c(=O)n(C23CC(F)(C2)C3)ccn1Cc1cc(-c2ccccn2)no1` [Example 203, 1-(3-fluorobicyclo[1.1.1]pentan-1-yl)-4-((3-(pyridin-2-yl)isoxazol-5-yl)methyl)-1,4-dihydropyrazine-2,3-dione], the EC50 was found to be 19 nM.

As to `N#CC1(n2ccn(Cc3ccc(-c4nccs4)nn3)c(=O)c2=O)CC1` [Example 204, 1-(2,3-dioxo-4-((6-(thiazol-2-yl)pyridazin-3-yl)methyl)-3,4-dihydropyrazin-1(2H)-yl)cyclopropane-1-carbonitrile], the EC50 is 78 nM. Consider `O=c1c(=O)n(C23CC(F)(C2)C3)ccn1Cc1ccc(-c2nccs2)nn1` [Example 205, 1-(3-fluorobicyclo[1.1.1]pentan-1-yl)-4-((6-(thiazol-2-yl)pyridazin-3-yl)methyl)-1,4-dihydropyrazine-2,3-dione], for which the EC50 amounted to 24 nM. Regarding `CC1(n2ccn(Cc3cc(-c4ccccn4)on3)c(=O)c2=O)CC1` [Example 206, 1-(1-methylcyclopropyl)-4-((5-(pyridin-2-yl)isoxazol-3-yl)methyl)-1,4-dihydropyrazine-2,3-dione], the EC50 was 28 nM. In the case of `N#CC1(n2ccn(Cc3cc(-c4ccccn4)on3)c(=O)c2=O)CC1` [Example 207, 1-(2,3-dioxo-4-((5-(pyridin-2-yl)isoxazol-3-yl)methyl)-3,4-dihydropyrazin-1(2H)-yl)cyclopropane-1-carbonitrile] it was 43 nM; in that of `O=c1c(=O)n(C23CC(F)(C2)C3)ccn1Cc1cc(-c2ccccn2)on1` [Example 208, 1-(3-fluorobicyclo[1.1.1]pentan-1-yl)-4-((5-(pyridin-2-yl)isoxazol-3-yl)methyl)-1,4-dihydropyrazine-2,3-dione], 21 nM. Then `CC1(n2ccn(Cc3cc(-c4cccnc4)on3)c(=O)c2=O)CC1` [Example 209, 1-(1-methylcyclopropyl)-4-((5-(pyridin-3-yl)isoxazol-3-yl)methyl)-1,4-dihydropyrazine-2,3-dione], with 26 nM; and `N#CC1(n2ccn(Cc3cc(-c4cccnc4)on3)c(=O)c2=O)CC1` [Example 210, 1-(2,3-dioxo-4-((5-(pyridin-3-yl)isoxazol-3-yl)methyl)-3,4-dihydropyrazin-1(2H)-yl)cyclopropane-1-carbonitrile], with 92 nM. For `O=c1c(=O)n(C23CC(F)(C2)C3)ccn1Cc1cc(-c2cccnc2)on1` [Example 211, 1-(3-fluorobicyclo[1.1.1]pentan-1-yl)-4-((5-(pyridin-3-yl)isoxazol-3-yl)methyl)-1,4-dihydropyrazine-2,3-dione], the EC50 was 61 nM. Regarding `O=c1c(=O)n(C23CC(C2)C3)ccn1Cc1cc(-c2cccnc2)on1` [Example 212, 1-(bicyclo[1.1.1]pentan-1-yl)-4-((5-(pyridin-3-yl)isoxazol-3-yl)methyl)-1,4-dihydropyrazine-2,3-dione], the EC50 was found to be 10 nM. Then `O=c1c(=O)n(C23CC(F)(C2)C3)ccn1Cc1ccc(-c2cncs2)nn1` [Example 213, 1-(3-fluorobicyclo[1.1.1]pentan-1-yl)-4-((6-(thiazol-5-yl)pyridazin-3-yl)methyl)-1,4-dihydropyrazine-2,3-dione], with 29 nM; and `O=c1c(=O)n(C23CC(F)(C2)C3)ccn1Cc1ccc(-c2ccccn2)nn1` [Example 214, 1-(3-fluorobicyclo[1.1.1]pentan-1-yl)-4-((6-(pyridin-2-yl)pyridazin-3-yl)methyl)-1,4-dihydropyrazine-2,3-dione], with 56 nM; and `O=c1c(=O)n(C23CC(F)(C2)C3)ccn1Cc1ccc(-c2cccnc2)nn1` [Example 215, 1-(3-fluorobicyclo[1.1.1]pentan-1-yl)-4-((6-(pyridin-3-yl)pyridazin-3-yl)methyl)-1,4-dihydropyrazine-2,3-dione], with 57 nM.

In the case of `O=c1c(=O)n(C2(CF)CC2)ccn1Cc1ccc(-n2nccn2)cn1` [Example 216, 1-((5-(2H-1,2,3-triazol-2-yl)pyridin-2-yl)methyl)-4-(1-(fluoromethyl)cyclopropyl)-1,4-dihydropyrazine-2,3-dione], the EC50 worked out at 60 nM. With `O=c1c(=O)n(C23CC(F)(C2)C3)ccn1Cc1ccc(-n2nccn2)cn1` [Example 217, 1-((5-(2H-1,2,3-triazol-2-yl)pyridin-2-yl)methyl)-4-(3-fluorobicyclo[1.1.1]pentan-1-yl)-1,4-dihydropyrazine-2,3-dione], the EC50 worked out at 42 nM. Take `O=c1c(=O)n(C2(CF)CC2)ccn1Cc1ccc(-n2cccn2)cn1` [Example 218, 1-((5-(1H-pyrazol-1-yl)pyridin-2-yl)methyl)-4-(1-(fluoromethyl)cyclopropyl)-1,4-dihydropyrazine-2,3-dione]: the EC50 worked out at 56 nM.

Regarding `O=c1c(=O)n(C23CC(F)(C2)C3)ccn1Cc1ccc(-n2cccn2)cn1` [Example 219, 1-((5-(1H-pyrazol-1-yl)pyridin-2-yl)methyl)-4-(3-fluorobicyclo[1.1.1]pentan-1-yl)-1,4-dihydropyrazine-2,3-dione], the EC50 was determined as 59 nM. Then `O=c1c(=O)n(C23CC(F)(C2)C3)ccn1Cc1ccc(-n2cccn2)nc1` [Example 220, 1-((6-(1H-pyrazol-1-yl)pyridin-3-yl)methyl)-4-(3-fluorobicyclo[1.1.1]pentan-1-yl)-1,4-dihydropyrazine-2,3-dione], with 50 nM.

Turning to `CC1(n2ccn(Cc3cc(-c4cccnc4)no3)c(=O)c2=O)CC1` [Example 221, 1-(1-methylcyclopropyl)-4-((3-(pyridin-3-yl)isoxazol-5-yl)methyl)-1,4-dihydropyrazine-2,3-dione], the EC50 is 14 nM. In the case of `N#CC1(n2ccn(Cc3cc(-c4cccnc4)no3)c(=O)c2=O)CC1` [Example 222, 1-(2,3-dioxo-4-((3-(pyridin-3-yl)isoxazol-5-yl)methyl)-3,4-dihydropyrazin-1(2H)-yl)cyclopropane-1-carbonitrile] it was 316 nM. Then `O=c1c(=O)n(C23CC(C2)C3)ccn1Cc1cc(-c2cccnc2)no1` [Example 223, 1-(bicyclo[1.1.1]pentan-1-yl)-4-((3-(pyridin-3-yl)isoxazol-5-yl)methyl)-1,4-dihydropyrazine-2,3-dione], with 10 nM.

In general, EC50 refers to the midpoint of the concentration-response curve.

Source of the values: US20240246937A1 (MERCK SHARP & DOHME LLC, priority 2021, published 2024).
